From publication PMC11480511 (Scientific Reports, 2024)
In brackets after ≈: the same amount, converted by molar mass. Like-named read-outs stand apart in the source and are kept apart here.

Experiments:
[1] = test system: K. pneumoniae ATCC 10,031; experiment: Antibacterial screening, agar cup diffusion method; format: cell-based; conditions: read-out: Minimum inhibitory concentrations (MIC, µM) K. pneumoniae ATCC 10,031
Experimental: Anti-bacterial activity of the recently synthesized compounds 3a-k was evaluated at AUMC (Assiut University Mycological Centre), Assiut, Egypt. Assays were done against Gram-negative strains of K. pneumoniae (ATCC 100310, E. coli (ATCC 25922), Pseudomonas aeruginosa (ATCC 27853) and the Gram-positive S. aureus (ATCC 6538) strain utilizing standard agar cup diffusion method. The isolates from the four bacterial species examined were kept in TSB (Trypticase Soya Broth, Becton and Dickinson) with 10% glycerol at -70 °C and then subcultured on TSA (Trypticase Soya Agar, Becton and Dickinson) and TSB for 24 h at 37 °C former to inoculation. Bacterial isolates were then plated on sterile petri plates with 1 × 10^8 CFU/mL (0.5 McFarland turbidity) and 20 mL of Mueller Hinton Agar media (Oxoid) was then loaded. To ensure that the microorganisms were evenly dispersed, the plates were gently rotated before being left to harden on a level surface. Four equally spaced spherical-shaped wells (10 mm diameter) were painstakingly drilled using a sterilized cork bore after media solidification. All tested compounds under test underwent two-fold serial dilutions in a sequential manner. Three replications of 100 µL of each concentration were added to a well using a micropipette. Plates were then incubated for 24-hour at 37 °C. The average of the inhibition zones was then calculated. To determine the MICs, the natural logarithm of each diluted test substance’s concentration was plotted against the average area of the related inhibition zone. Following that, a regression line was created and the intercept on the ‘ln concentration” axis was determined, and the antilogarithm was calculated to indicate the MIC value[34],[63].

RXF 393 = experiment: NCI single-dose growth inhibition screen; format: cell-based; conditions: Homo sapiens; Renal Cancer RXF 393; single dose 10^−5 M
SN12C = experiment: NCI single-dose growth inhibition screen; format: cell-based; conditions: Homo sapiens; Renal Cancer SN12C; single dose 10^−5 M
UACC-62 = experiment: NCI single-dose growth inhibition screen; format: cell-based; conditions: Homo sapiens; Melanoma UACC-62; single dose 10^−5 M
ACHN = experiment: NCI single-dose growth inhibition screen; format: cell-based; conditions: Homo sapiens; Renal Cancer ACHN; single dose 10^−5 M
M14 = experiment: NCI single-dose growth inhibition screen; format: cell-based; conditions: Homo sapiens; Melanoma M14; single dose 10^−5 M
Experimental: Following the guidelines established by the drug evaluation department of the National Cancer Institute (NCI), USA, all target compounds 3a–l were examined against 60 cancer cell lines at a single concentration of 10 µM.
The anti-cancer potential of the tested compounds was evaluated at the National cancer institute (NCI), USA, against 9 panels of 60 various cell lines derived from nine human tumours available usually at NCI library. The procedures for the screening were described in details in NCI website (dttp://www.dtp.nci.nih.gov.) and were done according to NCI protocols[60] . The anticancer screening was carried out at single dose of 10^−5 M, NCI, Bethesda, USA. The results obtained as growth inhibition (%).

SNB-75 = experiment: NCI single-dose growth inhibition screen; format: cell-based, human; conditions: single dose 10^−5 M; for inhibition at 10 µM: Homo sapiens, SNB-75, CNS Cancer SNB-75; for Growth Inhibition (%): CNS Cancer SNB-75
RPMI-8226 = experiment: NCI single-dose growth inhibition screen; format: cell-based; conditions: Homo sapiens; Leukemia RPMI-8226; single dose 10^−5 M
K-562 = experiment: NCI single-dose growth inhibition screen; format: cell-based; conditions: Homo sapiens, K562; Leukemia K-562; single dose 10^−5 M
LOX IMVI = experiment: NCI single-dose growth inhibition screen; format: cell-based, human; conditions: Melanoma LOX IMVI, single dose 10^−5 M; for inhibition at 10 µM: Homo sapiens, LOX IMVI
OVCAR-8 = experiment: NCI single-dose growth inhibition screen; format: cell-based; conditions: Homo sapiens; Ovarian Cancer OVCAR-8; single dose 10^−5 M
HCT-116 = experiment: NCI single-dose growth inhibition screen; format: cell-based; conditions: Homo sapiens; Colon Cancer HCT-116; single dose 10^−5 M
MDA-MB-468 = experiment: NCI single-dose growth inhibition screen; format: cell-based; conditions: Homo sapiens; Breast Cancer MDA-MB-468; single dose 10^−5 M
NCI-H522 = experiment: NCI single-dose growth inhibition screen; format: cell-based; conditions: Homo sapiens; Non-Small Cell Lung Cancer NCI-H522; single dose 10^−5 M
MDA-MB-435 = experiment: NCI single-dose growth inhibition screen; format: cell-based; conditions: Homo sapiens; Melanoma MDA-MB-435; single dose 10^−5 M
DU-145 = experiment: NCI single-dose growth inhibition screen; format: cell-based; conditions: Homo sapiens; Prostate Cancer DU-145; single dose 10^−5 M
786-0 = experiment: NCI single-dose growth inhibition screen; format: cell-based; conditions: Homo sapiens; Renal Cancer 786-0; single dose 10^−5 M
CAKI-1 = experiment: NCI single-dose growth inhibition screen; format: cell-based; conditions: Homo sapiens; Renal Cancer CAKI-1; single dose 10^−5 M
[2] = test system: A498 renal cancer cell line; experiment: cells; conditions: Homo sapiens; for viability at 0.4 µM / viability at 1.6 µM / viability at 25 µM / viability at 100 µM: A498; for IC50: A498, read-out: In vitro cytotoxicity (IC50) A498 cell line (µM ± SEM)
human melanoma LOX IMVI = experiment: cells; conditions: for IC50: read-out: In vitro cytotoxicity (IC50) LOX IMVI (µM ± SEM)
[3] = Klebsiella pneumoniae, ATCC10, Gram –ve strain

Structure (SMILES) | MIC [1, 3] | inhibition at 10 µM (RXF 393) | inhibition at 10 µM (SN12C) | inhibition at 10 µM (UACC-62) | inhibition at 10 µM (ACHN) | inhibition at 10 µM (M14) | inhibition at 10 µM (SNB-75) | inhibition at 10 µM (RPMI-8226) | inhibition at 10 µM (K-562) | melting point | inhibition at 10 µM (LOX IMVI) | inhibition at 10 µM (OVCAR-8) | inhibition at 10 µM (HCT-116) | inhibition at 10 µM (MDA-MB-468) | inhibition at 10 µM (NCI-H522) | inhibition at 10 µM (MDA-MB-435) | inhibition at 10 µM (DU-145) | inhibition at 10 µM (786-0) | inhibition at 10 µM (CAKI-1) | viability at 0.4 µM [2] | also measured
COc1ccc(/C=C2\SC(=O)N(CCCC(=O)N3CCN(c4cc5c(cc4F)c(=O)c(C(=O)O)cn5C4CC4)CC3)C2=O)cc1OC [3f] | > 20 µM | < 0% | 0.8% | 1.4% | < 0% | < 0% | 4.9% | < 0% | 1.1% | 241 °C | 2.4% | 2.9% | < 0% | < 0% | 7.8% | < 0% | < 0% | 2.4% | 1.7% | – | –
O=C(O)c1cn(C2CC2)c2cc(N3CCN(C(=O)CCCN4C(=O)S/C(=C\c5ccc(Cl)cc5)C4=O)CC3)c(F)cc2c1=O [3 h] | – | < 0% | 0.4% | 6.2% | 0.7% | 0.7% | 15.5% | < 0% | 0.7% | 273 °C | 38.2% | 5.3% | 1.8% | < 0% | 18.3% | < 0% | < 0% | 11.3% | 4.4% | – | –
COc1cc(/C=C2\SC(=O)N(CCCC(=O)N3CCN(c4cc5c(cc4F)c(=O)c(C(=O)O)cn5C4CC4)CC3)C2=O)cc(OC)c1OC [3 g] | 0.13 to 0.8 µM (≈ 0.0903 to 0.556 µg/mL) | < 0% | 0.6% | 3.7% | < 0% | 0.5% | 5.9% | < 0% | < 0% | 252 °C | 1.8% | 1.9% | < 0% | < 0% | 3.3% | < 0% | < 0% | < 0% | 2.2% | – | MIC ([1]; Gram –ve strain): 0.25 µM (≈ 0.174 µg/mL)
O=C(O)c1cn(C2CC2)c2cc(N3CCN(C(=O)CCCN4C(=O)S/C(=C\c5ccc(F)cc5)C4=O)CC3)c(F)cc2c1=O [3i] | > 20 µM | < 0% | 2.2% | 19.3% | 4.6% | 4.6% | 16.5% | < 0% | < 0% | – | 51.3% | 6.8% | 4.5% | 7.6% | 22.9% | 1.6% | < 0% | 18.2% | 4.9% | 95.7% | viability at 1.6 µM [2]: 83.5%; viability at 25 µM [2]: 65%; viability at 100 µM [2]: 52.3%; IC50 [2]: 147 ± 8.3 µM; Growth Inhibition (%) (LOX IMVI): 51.3%; viability at 0.4 µM (human melanoma LOX IMVI): 74.9%; viability at 1.6 µM (human melanoma LOX IMVI): 67.8%; viability at 25 µM (human melanoma LOX IMVI): 51.5%; viability at 100 µM (human melanoma LOX IMVI): 41.2%; IC50 (human melanoma LOX IMVI): 25.4 ± 1.43 µM
O=C(O)c1cn(C2CC2)c2cc(N3CCN(C(=O)CCCN4C(=O)CSC4=O)CC3)c(F)cc2c1=O [3 L, 1-Cyclopropyl-7-(4-(4-(2,4-dioxothiazolidin-3-yl)butanoyl)piperazin-1-yl)-6-fluoro-4-oxo-1,4-dihydroquinoline-3-carboxylic acid] | > 20 µM | 30.7% | 14.6% | 8.4% | 0.6% | < 0% | 51.1% | 6% | < 0% | 230 °C | 0% | < 0% | < 0% | 2.1% | – | < 0% | 8.3% | 4.8% | 22.7% | 92.2% | viability at 1.6 µM [2]: 80.2%; viability at 25 µM [2]: 59.6%; viability at 100 µM [2]: 49.1%; IC50 [2]: 80.7 ± 4.55 µM; Growth Inhibition (%) (SNB-75): 51.1%; Growth Inhibition (%) (LOX IMVI): - (- means no detected activity); viability at 0.4 µM (human melanoma LOX IMVI): 84.8%; viability at 1.6 µM (human melanoma LOX IMVI): 78.9%; viability at 25 µM (human melanoma LOX IMVI): 59.8%; viability at 100 µM (human melanoma LOX IMVI): 49.1%; IC50 (human melanoma LOX IMVI): 109 ± 6.15 µM
O=C(O)c1cn(C2CC2)c2cc(N3CCN(C(=O)CCCN4C(=O)S/C(=C\c5ccc([N+](=O)[O-])cc5)C4=O)CC3)c(F)cc2c1=O [3k] | – | 47.9% | 8.7% | 2% | 0.1% | < 0% | 42.5% | 8.7% | < 0% | 299 to 300 °C | 8.88% | < 0% | < 0% | < 0% | – | < 0% | 7% | 14.1% | 19.5% | 103% | viability at 1.6 µM [2]: 93.1%; viability at 25 µM [2]: 72.6%; viability at 100 µM [2]: 60.5%; IC50 [2]: > 150 µM; Growth Inhibition (%) (SNB-75): 42.5%; Growth Inhibition (%) (LOX IMVI): 8.9%; viability at 0.4 µM (human melanoma LOX IMVI): 110%; viability at 1.6 µM (human melanoma LOX IMVI): 102%; viability at 25 µM (human melanoma LOX IMVI): 80.2%; viability at 100 µM (human melanoma LOX IMVI): 65.4%; IC50 (human melanoma LOX IMVI): > 150 µM
COc1ccc(C=C2SC(=O)N(CCCC(=O)N3CCN(c4cc5c(cc4F)c(=O)c(C(=O)O)cn5C4CC4)CC3)C2=O)cc1 [3e, 1-cyclopropyl-6-fluoro-7-[4-[4-[5-[(4-methoxyphenyl)methylene]-2,4-dioxo-thiazolidin-3-yl]butanoyl]piperazin-1-yl]-4-oxoquinoline-3-carboxylic acid] | 0.13 to 0.8 µM (≈ 0.0825 to 0.508 µg/mL) | < 0% | < 0% | 7% | 1.2% | < 0% | 12.6% | < 0% | < 0% | – | 42.5% | 5.3% | 0% | < 0% | 25.7% | < 0% | < 0% | 18.7% | 5.5% | 102% | MIC ([1]; Gram –ve strain): 0.19 µM (≈ 0.121 µg/mL); viability at 1.6 µM [2]: 91.7%; viability at 25 µM [2]: 69.4%; viability at 100 µM [2]: 56.2%; viability at 0.4 µM (human melanoma LOX IMVI): 76.7%; viability at 1.6 µM (human melanoma LOX IMVI): 67.7%; viability at 25 µM (human melanoma LOX IMVI): 52%; viability at 100 µM (human melanoma LOX IMVI): 47.4%
Cc1ccc(/C=C2\SC(=O)N(CCCC(=O)N3CCN(c4cc5c(cc4F)c(=O)c(C(=O)O)cn5C4CC4)CC3)C2=O)cc1 [3c] | – | 7.2% | < 0% | 4.2% | 2.3% | < 0% | – | – | < 0% | 233 to 234 °C | 3.5% | < 0% | < 0% | < 0% | 1.7% | < 0% | < 0% | 0.9% | 1.5% | – | –
